Experimental data: ChEMBL document CHEMBL1671791, “Electron paramagnetic resonance (EPR) study of spin-labeled camptothecin derivatives: a different look of the ternary complex” (J Med Chem, 2011)
The source made the active and inactive calls. The rule behind the calls is not given here.

Experiments:
[1] = molecular target: T1, DNA topoisomerase 1 (Homo sapiens) (UniProt P11387); test: Inhibition of human recombinant DNA topoisomerase 1-mediated DNA cleavage at 0.1 to 100 uM after 20 mins
T1 sequence (whole entry): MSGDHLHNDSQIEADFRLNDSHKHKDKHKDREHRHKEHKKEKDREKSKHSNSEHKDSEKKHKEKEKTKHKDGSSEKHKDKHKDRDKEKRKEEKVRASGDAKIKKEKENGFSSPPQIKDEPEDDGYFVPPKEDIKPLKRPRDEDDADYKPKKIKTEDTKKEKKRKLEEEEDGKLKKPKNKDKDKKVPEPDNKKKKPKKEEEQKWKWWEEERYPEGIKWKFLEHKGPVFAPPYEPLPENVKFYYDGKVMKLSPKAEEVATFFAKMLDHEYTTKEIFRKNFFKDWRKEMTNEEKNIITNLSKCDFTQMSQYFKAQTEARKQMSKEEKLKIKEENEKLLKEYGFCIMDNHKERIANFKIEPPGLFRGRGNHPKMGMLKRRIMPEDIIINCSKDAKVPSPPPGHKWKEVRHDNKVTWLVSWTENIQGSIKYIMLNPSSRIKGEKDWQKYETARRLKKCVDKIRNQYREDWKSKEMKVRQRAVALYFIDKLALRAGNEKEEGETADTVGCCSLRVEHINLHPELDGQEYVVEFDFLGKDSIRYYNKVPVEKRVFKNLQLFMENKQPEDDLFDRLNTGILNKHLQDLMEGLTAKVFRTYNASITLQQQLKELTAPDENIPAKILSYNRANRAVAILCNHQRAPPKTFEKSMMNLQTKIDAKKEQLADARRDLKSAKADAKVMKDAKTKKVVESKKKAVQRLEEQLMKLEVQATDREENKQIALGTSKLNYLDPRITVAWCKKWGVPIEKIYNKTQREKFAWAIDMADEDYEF

[2] = molecular target: T1, DNA topoisomerase 1 (Homo sapiens); test: Binding affinity to human recombinant DNA topoisomerase 1 at 20 uM by electron paramagnetic resonance analysis
[3] = molecular target: T1, DNA topoisomerase 1 (Homo sapiens); test: Reversible inhibition of human recombinant DNA topoisomerase 1-mediated DNA cleavage at 0.1 to 100 uM after 20 mins

| SMILES | inhibition [1] | Activity [2] | inhibition [3] |
| --- | --- | --- | --- |
| CC[C@@]1(O)C(=O)OCc2c1cc1n(c2=O)Cc2c-1nc1ccccc1c2C(=O)NC1CC(C)(C)N([O])C(C)(C)C1 | Active | – | – |
| CC[C@@]1(O)C(=O)OCc2c1cc1n(c2=O)Cc2c-1nc1ccccc1c2/C=N/C1CC(C)(C)N([O])C(C)(C)C1 | Active | Active | Active |
